Laboratory results taken from ChEMBL document CHEMBL1201862, “PubChem BioAssay data set” (2004).
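A five-concentration, 48-hour dose response in 96-well plates underlies each endpoint, interpolated linearly between surrounding concentrations. GI50 marks 50% less growth.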 The source made the active and inactive calls. Rule as the data show it: active = GI50 up to about 1.1 µM and inactive = higher.

Tests used:
Test in all cases: NCI tumour cell line growth inhibition, 48 h
SF-539 = test system: SF-539
RPMI-8226 = test system: RPMI-8226
K562 = test system: K562
UO-31 = test system: UO-31
LOX IMVI = test system: LOX IMVI
SK-MEL-5 = test system: SK-MEL-5
SK-MEL-2 = test system: SK-MEL-2
IGROV-1 = test system: IGROV-1
NCI-H226 = test system: NCI-H226
ACHN = test system: ACHN
CAKI-1 = test system: CAKI-1
Malme-3M = test system: Malme-3M
SK-MEL-28 = test system: SK-MEL-28
HL-60 = test system: HL-60
A549 = test system: A549
U-251 = test system: U-251
NCI-H522 = test system: NCI-H522
A498 = test system: A498
SNB-19 = test system: SNB-19

Measured: GI50

O=C(Nc1nc2c(ncn2C2OC(CO)C(O)C2O)c(=O)[nH]1)c1ccccc1 (centres undefined)
inactive: SF-539 > 100 µM | RPMI-8226 > 100 µM | K562 > 100 µM | UO-31 > 100 µM | LOX IMVI > 100 µM | SK-MEL-5 > 100 µM | SK-MEL-2 > 100 µM | IGROV-1 > 100 µM | NCI-H226 > 100 µM | ACHN > 100 µM | CAKI-1 > 100 µM | Malme-3M > 100 µM | SK-MEL-28 > 100 µM | HL-60 > 100 µM | A549 > 100 µM | U-251 > 100 µM | NCI-H522 93.3 µM | A498 > 100 µM

Cc1ccccc1C1=[N+]([O-])c2ccccc2C1=O
inactive: SF-539 19.1 µM | RPMI-8226 39.2 µM | K562 20.9 µM | UO-31 19.1 µM | LOX IMVI 18.7 µM | SK-MEL-5 16.8 µM | SK-MEL-2 3.22 µM | IGROV-1 18.3 µM | NCI-H226 16.3 µM | ACHN 16.9 µM | SNB-19 46.1 µM | Malme-3M 18.4 µM | SK-MEL-28 20.7 µM | HL-60 10.3 µM | A549 > 10 µM | U-251 16.9 µM | NCI-H522 15.2 µM | A498 83.8 µM

CC(=O)C(CN(CC(C)C)CC(C)C)C(c1ccccc1)c1c(O)c2ccccc2oc1=O (centres undefined)
inactive: SF-539 > 100 µM | RPMI-8226 > 100 µM | K562 > 10 µM | LOX IMVI > 100 µM | SK-MEL-2 > 100 µM | IGROV-1 > 100 µM | NCI-H226 > 100 µM | ACHN > 100 µM | SNB-19 > 100 µM | CAKI-1 > 100 µM | Malme-3M > 100 µM | SK-MEL-28 > 100 µM | HL-60 > 100 µM | A549 > 100 µM | NCI-H522 > 100 µM | A498 > 100 µM

C/C=C1\CN2CCc3c([nH]c4ccccc34)C2CC1CCO (centres undefined)
inactive: SF-539 > 100 µM | K562 > 100 µM | UO-31 74.8 µM | LOX IMVI > 100 µM | SK-MEL-5 > 100 µM | SK-MEL-2 > 100 µM | IGROV-1 > 100 µM | NCI-H226 > 100 µM | ACHN > 100 µM | SNB-19 > 100 µM | Malme-3M > 100 µM | SK-MEL-28 > 100 µM | HL-60 > 100 µM | A549 > 100 µM | U-251 > 100 µM | NCI-H522 > 100 µM | A498 > 100 µM

Cc1ccc(NC(=O)C(=O)C2C(=O)N(c3ccccc3)N=C2N)cc1C (centres undefined)
inactive: SF-539 > 100 µM | RPMI-8226 > 100 µM | K562 > 100 µM | UO-31 > 100 µM | SK-MEL-5 > 100 µM | IGROV-1 > 100 µM | NCI-H226 > 100 µM | ACHN > 100 µM | SNB-19 > 100 µM | CAKI-1 > 100 µM | Malme-3M > 100 µM | SK-MEL-28 > 100 µM | HL-60 > 100 µM | A549 > 100 µM | U-251 > 100 µM | NCI-H522 > 100 µM | A498 > 100 µM

Cc1oc2c(C)c(O)c3c(c2c1C1(C)OCCO1)C(=O)C=C(Cl)C3=O
inactive: SF-539 > 100 µM | RPMI-8226 > 100 µM | K562 > 100 µM | UO-31 > 100 µM | LOX IMVI > 100 µM | SK-MEL-5 > 100 µM | SK-MEL-2 > 100 µM | IGROV-1 > 100 µM | NCI-H226 > 100 µM | ACHN > 100 µM | SNB-19 > 100 µM | CAKI-1 > 100 µM | SK-MEL-28 > 100 µM | HL-60 > 100 µM | A549 > 100 µM | U-251 > 100 µM | NCI-H522 > 100 µM | A498 > 100 µM

Cc1cc(N(CCC#N)CCC#N)ccc1/N=N/c1cccc(Cl)c1
inactive: SF-539 > 100 µM | RPMI-8226 > 100 µM | K562 3.42 µM | UO-31 > 100 µM | SK-MEL-5 > 100 µM | SK-MEL-2 > 100 µM | NCI-H226 > 100 µM | ACHN > 100 µM | SNB-19 51.8 µM | CAKI-1 2.96 µM | Malme-3M > 100 µM | SK-MEL-28 > 100 µM | HL-60 3.94 µM | A549 9.93 µM | U-251 > 100 µM | NCI-H522 > 100 µM | A498 > 100 µM

CN(C)CCN(C)C(=O)C1CCCN1C(=O)OCc1ccccc1 (centres undefined)
inactive: SF-539 > 100 µM | RPMI-8226 > 100 µM | K562 61.1 µM | UO-31 > 100 µM | LOX IMVI > 100 µM | SK-MEL-5 > 100 µM | SK-MEL-2 > 100 µM | IGROV-1 > 100 µM | NCI-H226 > 100 µM | ACHN > 100 µM | SNB-19 > 100 µM | Malme-3M > 100 µM | SK-MEL-28 > 100 µM | HL-60 34.7 µM | A549 > 100 µM | U-251 > 100 µM | NCI-H522 6.71 µM | A498 > 100 µM

N#CC12Cc3cc4c(cc3-c3cccc(c31)CCN2C(=O)c1ccccc1)OCO4 (centres undefined)
inactive: SF-539 > 100 µM | RPMI-8226 > 100 µM | K562 > 100 µM | UO-31 > 100 µM | LOX IMVI > 100 µM | SK-MEL-5 > 100 µM | SK-MEL-2 > 100 µM | IGROV-1 > 100 µM | NCI-H226 > 100 µM | ACHN > 100 µM | SNB-19 68.1 µM | Malme-3M > 100 µM | SK-MEL-28 > 100 µM | HL-60 > 100 µM | A549 > 100 µM | U-251 > 100 µM | NCI-H522 > 10 µM | A498 53.3 µM

COc1ccc(N2C(=O)C3c4[nH]c5ccccc5c4C4CC(C)CC(C)C4C3C2=O)cc1 (centres undefined)
inactive: SF-539 > 100 µM | RPMI-8226 > 100 µM | K562 > 100 µM | UO-31 > 100 µM | SK-MEL-5 > 100 µM | IGROV-1 > 100 µM | NCI-H226 > 100 µM | ACHN > 100 µM | SNB-19 > 100 µM | Malme-3M > 100 µM | SK-MEL-28 > 100 µM | HL-60 > 100 µM | A549 > 100 µM | U-251 > 100 µM | NCI-H522 > 100 µM | A498 > 100 µM

Cc1ccccc1NC(=O)CC(=O)NNCC(=O)Nc1nnc(-c2ccccc2)s1
inactive: SF-539 > 100 µM | RPMI-8226 25 µM | K562 37.8 µM | UO-31 45 µM | LOX IMVI 51.3 µM | SK-MEL-5 51.1 µM | SK-MEL-2 > 100 µM | IGROV-1 > 100 µM | NCI-H226 26.5 µM | ACHN 54.2 µM | SNB-19 79.1 µM | CAKI-1 > 100 µM | SK-MEL-28 > 100 µM | HL-60 31.5 µM | A549 > 100 µM | U-251 50 µM | NCI-H522 65.2 µM | A498 30.9 µM

O=C1CSC(C(/N=N/c2ccccc2)=C2Nc3ccccc3N2)=N1
inactive: SF-539 26.4 µM | K562 33.5 µM | UO-31 95.7 µM | LOX IMVI 52.1 µM | SK-MEL-5 39.8 µM | SK-MEL-2 53.3 µM | IGROV-1 > 100 µM | NCI-H226 13.6 µM | ACHN 31 µM | SNB-19 31.9 µM | CAKI-1 24.9 µM | Malme-3M 58.3 µM | SK-MEL-28 29.6 µM | HL-60 35.9 µM | A549 53.2 µM | U-251 97.9 µM | NCI-H522 56.4 µM | A498 30.7 µM

CCOC(=O)C1=C(Nc2cccc3ccccc23)OC/C1=N\NC(=O)c1ccccc1O
inactive: SF-539 10.6 µM | RPMI-8226 16.7 µM | K562 10.1 µM | UO-31 4.88 µM | LOX IMVI 14.3 µM | SK-MEL-5 12.9 µM | SK-MEL-2 29.8 µM | IGROV-1 4.26 µM | NCI-H226 22.3 µM | ACHN 8.63 µM | SNB-19 22.1 µM | CAKI-1 7.28 µM | Malme-3M 28.9 µM | SK-MEL-28 22.3 µM | HL-60 6.93 µM | A549 16.4 µM | U-251 23.7 µM | NCI-H522 7.64 µM | A498 19.5 µM

COc1ccccc1/C=C\c1cc(OC)c(OC)c(OC)c1
inactive: SF-539 6.4 µM | RPMI-8226 5.01 µM | K562 4.06 µM | UO-31 16.1 µM | LOX IMVI 9.59 µM | SK-MEL-5 4.33 µM | IGROV-1 6.41 µM | NCI-H226 19.2 µM | ACHN 33.8 µM | SNB-19 39.4 µM | CAKI-1 8.22 µM | Malme-3M 16.5 µM | SK-MEL-28 33.9 µM | HL-60 3.22 µM | A549 6.08 µM | U-251 6.03 µM | NCI-H522 6.14 µM | A498 7.64 µM

CC(C)=Cc1cc2c(cc1O)CCC1C2CC[C@@]2(C)C1CC[C@@H]2O (some centres undefined)
inactive: RPMI-8226 5.14 µM | K562 3.75 µM | UO-31 13.3 µM | LOX IMVI 3.97 µM | SK-MEL-5 6.24 µM | SK-MEL-2 14.8 µM | IGROV-1 12.8 µM | NCI-H226 8.81 µM | ACHN 14 µM | SNB-19 11.6 µM | CAKI-1 13.5 µM | Malme-3M 10.4 µM | SK-MEL-28 15.5 µM | HL-60 15.2 µM | A549 12.5 µM | U-251 10.4 µM | NCI-H522 5.35 µM | A498 16.4 µM
